Experimental findings from patent publication US11622964B2, “Method for destroying cellular mechanical homeostasis and promoting regeneration and repair of tissues and organs, and use thereof” (INSTITUTE OF ZOOLOGY, CHINESE ACADEMY OF SCIENCES, priority 2018, dated 2023) are described below.

Series [1] deals with CCl4-induced chronic severe hepatic fibrosis. The series can be described thus: CCl4-induced chronic severe hepatic fibrosis model. The format is in vivo, mice. Conditions: 1 mg or 3 mg per kg per day, intraperitoneal or tail vein injection, 6-8 weeks. As for the experimental part:
The ICR, C57Bl/6 mice used in the experiment are purchased from SPF (Beijing) Biotechnology Co., Ltd., carbon tetrachloride is purchased from Aladdin Reagent (Shanghai) Co., Ltd. (C131583-1L), and corn oil is purchased from Sigma (C8267). 8-10 week-old female mice are selected and housed in the barrier for one week, they are randomly divided into two groups, and respectively injected with CCl4/corn oil (a volume ratio of 1:2) and corn oil. The dose of CCl4 is 2 ml/kg, twice a week for […]. After 6 weeks, the mice are anesthetized with 5% chloral hydrate, and part of the hepatic lobe is taken out, fixing with 4% paraformaldehyde, dehydrating and immersing in wax, then staining with Sirius Red (YY-R20384-100ML) kit for fibrosis, wherein the collagenous fibers are red, as shown in FIG. 3B. After successful identification of the modeling, the drug administration is performed by intraperitoneal injection or tail vein injection. […] Further, quantitative PCR is performed to identify the expression of fibrosis-related genes Acta2 (myofibroblast marker), Col1a1 (representing type I collagen), Col1a2 (representing type I collagen), Col6a1 (representing collagen), Col6a2 (representing collagen), and Vim (representing fibroblasts), as shown in FIG. 3E and FIG. 3F (continued). […]

In series [2] the test system is mouse embryonic fibroblasts (MEFs). The series can be described thus: TGF-β1-induced transformation of mouse embryonic fibroblasts into myofibroblasts. The format is cell-based. From the text:
(§1) In this example, cell models for in vitro fibrosis are respectively built to activate mouse hepatic stellate Cells (mHSCs, FIG. 13(B)), mouse embryonic fibroblasts (MEFs FIG. 13(C)), mouse adult liver, lung, and heart-derived primary mesenchymal cells (priMCs, FIG. 13(D)), and human hepatic stellate cells (hLX-2, FIG. 13(E)) into myofibroblasts through the induction of TGF-β1. The specific experimental procedure is as shown in FIG. 9A: a medium containing 10% serum is used for the initial cell culture; after 24 hours the medium is replaced with low serum medium (or pre-starvation treatment for 16 hours) while adding 3 ng/ml TGF-β1 with DMSO or Bleb (20 μM); after 7 days the expression of myofibroblast activation marker protein (Acta2), collagen (Col1a1, Col1a2, Col3a1, and Col1a2), and matrix metalloproteinases and inhibitors (collagenases: MmP8, and MmP13; gelatinases: MmP2, and MmP9; a metalloproteinase inhibitor: Timp1/2/3) are identified.

Series [3] deals with mouse adult liver, lung, and heart-derived primary mesenchymal cells (priMCs). The series is described as follows: TGF-β1-induced transformation of mouse primary mesenchymal cells into myofibroblasts. The format is cell-based. The conditions noted are these: 20 μM, 3 ng/ml TGF-β1, 7 days.
Excerpt: as §1

In series [4] the test system is human embryonic hepatocytes. The series is described as follows: In vitro amplification of human embryonic hepatocytes. The format is cell-based. Conditions: for cell amplification multiple: 12 days of passage culture (3 generations). As for the experimental part: Resuscitation of Human Embryonic Hepatocytes: human embryonic hepatocytes are removed from a liquid nitrogen tank (aborted fetus, frozen storage date is Jan. 15, 2014, frozen stock solution is cell banker 2, frozen cell number is 2×10^7/tube), quickly placing in a 37° C. water bath; and after melting the cells are immediately inhaled into a 15 ml centrifuge tube containing 5 ml of hepatocyte medium (control group), centrifuging at 50 g, 4° C. for 5 min; the supernatant is discarded, and the cells are resuspended in 500 ul hepatocyte medium and calculated as 1.16×10^6 with a cell recovery rate of 5.8%.
Inoculation of Human Embryonic Hepatocytes: inoculation density is 1×10^5/24 well plate, adding 500 μl hepatocyte medium (control group), hepatocyte medium containing 10 μM small molecules, and hepatocyte medium containing 20 μM small molecules respectively; 24 hours after inoculating, 3 wells of cells in each group are digested respectively to count the number of the cells, then calculating the cell adherent rate. 72 hours after inoculating, 3 wells of cells in each group are digested respectively to count the number of the cells. Multiple of the change of cell number may be obtained through dividing the number of cells at 72 hours after inoculation by the number of cells at 24 hours after inoculation. A portion of the cells per well (⅖ of the cell count) are taken for RNA extraction so as to detect human hepatocyte-related gene expression.
The First Passage of Human Embryonic Hepatocytes: cells are respectively inoculated into a 24-well plate coated with rat tail collagen (as described above), and the inoculum density is ⅗ of the number of cells after 72 hours of primary culture; 3 duplicate wells per group. After 72 hours of cell culture, the cells are digested to count the number. Multiple of the first passage amplification may be obtained through dividing the counted number of cells by the number of cells at the time of inoculation. A portion of the cells per well (⅖ of the cell count) are taken for RNA extraction so as to detect human hepatocyte-related gene expression.
The Second Passage of Human Embryonic Hepatocytes: cells are respectively inoculated into a 24-well plate coated with rat tail collagen (as described above), and the inoculum density is ⅗ of the number of cells after 72 hours of the first passage culture. […] After changing the medium every 2 days and continuing to culture for 144 hours (6 days), the cells are digested and counted. Multiple of the second passage amplification may be obtained through dividing the counted number of cells by the number of cells at the time of inoculation. […]

Consider `Cc1ccc2c(c1)C(=O)[C@]1(O)CCN(c3ccccc3)C1=N2` [(−)-blebbistatin], for which the “accumulation of collagenous fibers (Sirius red, Col I staining)” value in series [1] is reported as “inhibits”. For the same compound, in series [1], the activation of myofibroblasts result is “inhibits”. For the same compound, the “TGF-β1 induced transformation into myofibroblasts and extracellular matrix synthesis” value in series [2] (20 μM, 3 ng/ml TGF-β1, 7 days) is given as “significantly inhibits”; in series [3], “significantly inhibits”. Moreover, the “stretched state / fibrous morphology of MEFs” value in series [2] (compared with DMSO, S-Bleb-OB 20 μM) was “may destroy the stretched state”. In series [2] (scheme as Example 9-1, S-Bleb-OB 20 μM), the TGF-β1-induced myofibroblast activation entry is recorded as “have an inhibitory effect”. Moreover, the cell amplification multiple entry in series [4] (20 μM Bleb medium) is reported as “about 13 times”; in series [4] (10 μm small-molecule medium), “about 22.1 times”. Further, the “expression of human hepatocyte-specific genes ALB and AFP (real-time quantitative PCR)” value in series [4] (12 days of passage culture in 10 μM and 20 μM small molecule media) was “still express human hepatocyte-specific genes”. For the same compound, the cell morphology result in series [4] (after 12 days of passage culture in small molecule medium) is recorded as “typical hepatocyte morphology”.
